# From publication PMC7272715, “Functional Characterization of Pseudoidium neolycopersici Photolyase Reveals Mechanisms Behind the Efficacy of Nighttime UV on Powdery Mildew Suppression” (Frontiers in Microbiology, 2020)
# Target: T1, PnPHR1 (P. neolycopersici photolyase, PN0912) (Erysiphe neolycopersici, UniProt A0A7D3USA5)
# T1 construct: GenBank MT277362-MT277364 printed for the three genes together (MT277363 only by order of listing)
# T1 sequence (A0A7D3USA5 1-634): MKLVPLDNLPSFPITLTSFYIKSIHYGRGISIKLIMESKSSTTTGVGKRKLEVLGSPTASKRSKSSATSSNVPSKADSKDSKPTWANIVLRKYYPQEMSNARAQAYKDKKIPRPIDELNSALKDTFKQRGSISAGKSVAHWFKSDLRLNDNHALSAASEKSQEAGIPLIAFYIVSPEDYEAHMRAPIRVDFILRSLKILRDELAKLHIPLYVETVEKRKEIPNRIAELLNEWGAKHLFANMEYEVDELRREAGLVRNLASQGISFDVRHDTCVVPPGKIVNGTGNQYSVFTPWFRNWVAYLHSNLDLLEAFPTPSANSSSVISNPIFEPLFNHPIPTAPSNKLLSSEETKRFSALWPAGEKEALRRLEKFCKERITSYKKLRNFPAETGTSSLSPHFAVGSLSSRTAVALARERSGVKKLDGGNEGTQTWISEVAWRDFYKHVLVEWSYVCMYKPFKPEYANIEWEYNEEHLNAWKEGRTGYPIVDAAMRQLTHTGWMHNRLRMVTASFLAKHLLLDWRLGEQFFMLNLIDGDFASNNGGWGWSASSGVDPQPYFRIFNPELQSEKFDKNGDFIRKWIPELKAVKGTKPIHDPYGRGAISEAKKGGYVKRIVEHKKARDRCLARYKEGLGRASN
# Experiment: absorption and fluorescence spectra of purified protein and of chromophore released by heat
# Assay type: binding
# Settings: pH 8.0 storage buffer, 22 °C; intrinsic chromophore co-purified from E. coli; identity inferred from emission (excitation 370 nm); no clear absorption maximum
smiles,measurement,value
Cc1cc2c(cc1C)N(C[C@H](O)[C@H](O)[C@H](O)COP(=O)(O)OP(=O)(O)OC[C@H]1O[C@@H](n3cnc4c(N)ncnc43)[C@H](O)[C@@H]1O)c1[nH]c(=O)[nH]c(=O)c1N2 [FADH^–],absorption and fluorescence spectra of purified protein and of chromophore relea,"could only reveal the presence of a reduced form of FAD, i.e., FADH^–"
